Test results taken from PMC9040635 (RSC Advances, 2021).

What was measured:
[1] = test system: formalin-induced rat paw oedema; assay: Formalin-induced hind rat paw oedema assay; assay type: in vivo; conditions: low dose 10 mg kg^−1 b.w, intraperitoneal, mean ± SEM n = 5
COX-1 = molecular target: T1, COX-1 (Ovis aries, UniProt P05979); assay: COX-1 inhibitory assay; assay type: biochemical; conditions: Cyclooxygenase-1; ΔGexp = −RT ln IC50, T = 300 K
T1 sequence (P05979 25-600): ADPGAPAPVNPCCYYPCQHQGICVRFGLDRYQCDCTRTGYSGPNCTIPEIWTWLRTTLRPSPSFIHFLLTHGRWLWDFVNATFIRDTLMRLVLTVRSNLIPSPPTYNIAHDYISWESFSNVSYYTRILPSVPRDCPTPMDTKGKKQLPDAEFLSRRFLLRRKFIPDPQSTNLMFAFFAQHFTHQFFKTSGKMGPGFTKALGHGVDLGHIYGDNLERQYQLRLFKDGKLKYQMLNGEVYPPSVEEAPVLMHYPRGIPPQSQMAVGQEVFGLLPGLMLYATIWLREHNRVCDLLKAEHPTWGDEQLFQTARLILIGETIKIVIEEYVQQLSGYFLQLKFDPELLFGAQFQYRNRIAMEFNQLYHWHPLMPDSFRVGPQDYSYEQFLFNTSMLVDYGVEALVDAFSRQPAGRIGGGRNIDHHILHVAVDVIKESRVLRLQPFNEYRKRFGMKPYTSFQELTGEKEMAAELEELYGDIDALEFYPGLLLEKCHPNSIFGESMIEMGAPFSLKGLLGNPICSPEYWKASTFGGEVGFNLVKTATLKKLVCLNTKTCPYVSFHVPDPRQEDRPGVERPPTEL

Row | SMILES | percentage reduction of rat paw oedema ([1]; 1 h) | percentage reduction of rat paw oedema ([1]; 2 h) | percentage reduction of rat paw oedema ([1]; 4 h) | ΔGexp (experimental binding free energy) (COX-1)
1 | COc1ccc2c(c1)c(CC(=O)O)c(C)n2C(=O)c1ccc(Cl)cc1 [Indomethacin] | 23.3 ± 2.2% | 31.0 ± 3.0% | 37.4 ± 2.8% | -11.0 kcal/mol
2 | Cc1ccc(-c2cc(C(F)(F)F)nn2-c2ccc(S(N)(=O)=O)cc2)cc1 [Celecoxib] | 24.7 ± 2.2% | 31.4 ± 1.8% | 38.5 ± 1.7% | 
